Source: patent publication US7414059B2, “Pyrazolyl and imidazolyl pyrimidines as CRF antagonists” (Roche Palo Alto LLC, priority 2003, dated 2008)
Structures can show the parent of a compound that is named as a salt.

How the values were obtained:
CRF1 receptor = biological target: T1, CRF1 receptor (Homo sapiens, UniProt P34998); assay: CRF1 Receptor Binding Assay; conditions: competition binding with [125I]Tyr0-ovine CRF, human IMR-32 neuroblastoma cell membranes; pKi derived from pIC50
T1 construct: Cell membranes are prepared according the method of Dieterich and DeSouza (1996); endogenous in cells; host or cells: IMR-32 human neuroblastoma cells (membrane preparation)
T1 sequence (P34998 24-415): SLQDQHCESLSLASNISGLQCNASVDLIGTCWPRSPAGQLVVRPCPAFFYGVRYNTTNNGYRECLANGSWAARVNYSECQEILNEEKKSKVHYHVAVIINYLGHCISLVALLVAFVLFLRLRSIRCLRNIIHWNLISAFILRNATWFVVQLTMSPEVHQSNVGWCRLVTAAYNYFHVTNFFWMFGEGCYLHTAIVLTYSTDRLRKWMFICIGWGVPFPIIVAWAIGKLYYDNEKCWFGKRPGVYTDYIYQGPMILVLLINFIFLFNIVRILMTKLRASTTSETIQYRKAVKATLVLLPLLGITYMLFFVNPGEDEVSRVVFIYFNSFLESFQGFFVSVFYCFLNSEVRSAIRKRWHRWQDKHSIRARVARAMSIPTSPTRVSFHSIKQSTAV
Experimental: CRF1 Receptor Binding Assay
Human IMR-32 neuroblastoma cells are grown to 80% confluence in MEM medium containing 10% heat-inactivated FBS, lmM Sodium Pyruvate, and 0.1 mM nonessential amino acids. Cell membranes are prepared according the method of Dieterich and DeSouza (1996). The cells (˜5E+9) are resuspended in 10 volumes of wash buffer (5 mM Tris HCl, 10 mM MgCl2, 2 mM EGTA, pH 7.4 at RT), homogenized with a Polytron, and then centrifuged at 45,000 G for 20 min at 4° C. The membrane pellets are washed twice with wash buffer (45,000 G for 20 min at 4° C.) and then resuspended (50 mM Tris HCl, 10 mM MgCl2, 2 mM EGTA, pH 7.4 at RT). Protein concentration is determined using Pierce reagents and BSA as standard. Aliquots of 1-1.5 mL are stored at −80° C. until binding assay.
The competition binding assay is performed in a final volume of 250 μl, which contains assay buffer (50 mM Tris-HCl, 10 mM MgCl2, 2 mM EGTA, 0.2% BSA, 0.1 mM bacitracin and 100 kIU/mL aprotinin pH 7.2 at R.T.), 0.05 nM [^125I]Tyr^0-ovine CRF (Du Pont New England Nuclear), 50 μg of membrane protein, and test compound at various concentrations. Non-specific binding is determined with 1 uM hCRF. Binding reactions are terminated after 2 hr incubation at 25° C. by filtering through 96-w GF/C filter plate using a Packard Harvester (Filtermate 196). The 96-w filter plate is pre-treated with 0.3% polyethyleneimine and pre-washed with washing buffer (50 mM Tris-HCl, 10 mM MgCl2, 2 mM EGTA, 0.2% BSA, pH 7.2 at 4° C.). Unbound radioactivity is removed by four rapid washes (0.8 ml/well) with wash buffer. The radioactivity is quantified using a Packard TopCount. Data are analyzed using non-linear iterative curve fitting to obtain IC50 and Hill slope values. PKi values are derived from pIC50 values (−log of IC50).

Ki (CRF1 receptor) | melting point | SMILES
1.91 µM |  | Cc1cn(-c2nc(C)nc(Nc3c(Cl)cc(Cl)cc3Cl)c2Cl)cn1 [[5-Chloro-2-methyl-6-(4-methyl-imidazol-1-yl)-pyrimidin-4-yl]-(2,4,6-trichloro-phenyl)-amine]
1.07 µM |  | Cc1ccn(-c2cc(Nc3c(Cl)cc(Cl)cc3Cl)nc(C)n2)n1 [[2-Methyl-6-(3-methyl-pyrazol-1-yl)-pyrimidin-4-yl]-(2,4,6-trichloro-phenyl)-amine]
 | 245 to 247 °C | Cc1ccn(-c2cc(Nc3c(Cl)cc(Cl)cc3Cl)nc(C)n2)n1 (as salt: hydrochloride) [[2-Methyl-6-(3-methyl-pyrazol-1-yl)-pyrimidin-4-yl]-(2,4,6-trichloro-phenyl)-amine]
1.62 µM |  | CCCc1ccn(-c2nc(C)nc(Nc3c(Cl)cc(Cl)cc3Cl)c2C)n1 [[2,5-Dimethyl-6-(3-propyl-pyrazol-1-yl)-pyrimidin-4-yl]-(2,4,6-trichloro-phenyl)-amine]
